Data on 1 compound can be found in patent US8138309B2, “Modified rubisco large subunit n-methyltransferase useful for targeting molecules to the active-site vicinity of ribulose-1,5-bisphosphate” (University of Kentucky Research Foundation, priority 2008, dated 2012).

This experiment has as its target T1, spinach Rubisco (Spinacia oleracea, UniProt P00875).
T1 construct: Spinach and pea Rubisco, and pea Rubisco LSMT were purified according to McCurry; from tissue
Briefly: Rubisco carboxylase assay (14CO2 fixation, O2-free, CO2-free buffers), spinach Rubisco. Format: biochemical. The settings on record: added to the Rubisco complex containing bound CA before the assay; AdoMet 100 μM. As for the experimental part: Kinetic analyses were performed as described previously for Rubisco Lorimer, G. H., Badger, M. R., and Andrews, T. J. Biochemistry 15, 529-536.1976. Pierce, J. W., McCurry, S. D., Mulligan, R. M., and Tolbert, N. E. Methods Enzymol. 89 Pt D, 47-55.1982. Assays were conducted under O2 free conditions with CO2-free buffers as described below, and contained normalized Rubisco and hCAII activities, unless otherwise indicated. The assays contained, unless otherwise indicated, 100 mM Bicine adjusted to pH 8.2 with a saturated NaOH solution, 20 mM MgCl2, 2 mM dithiothreitol, 0.5 mM RuBP, and NaH^14 CO3 (1.0 mCi/mmol). Reactions were initiated by the addition of activated Rubisco, or conjugate, injected into an 8 mL serum capped vial (first flushed with nitrogen). Activation of Rubisco or conjugate was performed at 2 mg/mL by incubation at 30 C for 15 min in 50 mM Bicine, pH 8.2, containing 20 mM MgCl2 and 15 mM NaH^14CO3. Assay times, enzyme masses, volumes, or specific activities were adjusted to limit substrate consumption to 10% or less. The assays were terminated by the addition by 2N HCl (0.4 volumes), and the liquid evaporated to dryness under a stream of air at 50° C. Radioactivity was determined with a liquid scintillation analyzer (Packard 2000 CA), after addition of 0.5 mL H20 and 4.5 mL of cocktail (Bio-Safe II, RPI). […]

On to `C[S+](CC[C@H](N)C(=O)[O-])C[C@H]1O[C@@H](n2cnc3c(N)ncnc32)[C@H](O)[C@@H]1O` (stereo partly shown) [AdoMet, S-adenosylmethionine], for which the “effect on the stimulation of carboxylase activity by bound CA” value is given as “the effect of bound CA was abolished”.
